Data: ChEMBL document CHEMBL1148593, “Matrix metalloproteinase target family landscape: a chemometrical approach to ligand selectivity based on protein binding site analysis” (J Med Chem, 2006)

Key:
[1] = biological target: T1, Interstitial collagenase (Homo sapiens, UniProt P03956); assay: Binding affinity to MMP1
T1 sequence (P03956 whole entry): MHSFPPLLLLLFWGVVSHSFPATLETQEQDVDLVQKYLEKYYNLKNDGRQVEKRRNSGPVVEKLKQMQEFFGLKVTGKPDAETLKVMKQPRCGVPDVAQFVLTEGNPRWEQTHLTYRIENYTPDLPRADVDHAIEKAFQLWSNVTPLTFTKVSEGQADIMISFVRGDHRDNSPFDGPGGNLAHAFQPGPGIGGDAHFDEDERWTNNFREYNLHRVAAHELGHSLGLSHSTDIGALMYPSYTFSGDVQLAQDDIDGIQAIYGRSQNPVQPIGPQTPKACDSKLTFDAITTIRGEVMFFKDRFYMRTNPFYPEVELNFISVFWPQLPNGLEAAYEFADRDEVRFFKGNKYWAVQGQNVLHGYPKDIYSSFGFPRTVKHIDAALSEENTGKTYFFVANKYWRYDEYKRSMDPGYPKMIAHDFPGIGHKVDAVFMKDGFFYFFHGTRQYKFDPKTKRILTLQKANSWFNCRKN

[2] = biological target: Neutrophil collagenase (Homo sapiens, UniProt P22894); assay: Binding affinity to MMP8
Neutrophil collagenase, sequence (P22894 whole entry): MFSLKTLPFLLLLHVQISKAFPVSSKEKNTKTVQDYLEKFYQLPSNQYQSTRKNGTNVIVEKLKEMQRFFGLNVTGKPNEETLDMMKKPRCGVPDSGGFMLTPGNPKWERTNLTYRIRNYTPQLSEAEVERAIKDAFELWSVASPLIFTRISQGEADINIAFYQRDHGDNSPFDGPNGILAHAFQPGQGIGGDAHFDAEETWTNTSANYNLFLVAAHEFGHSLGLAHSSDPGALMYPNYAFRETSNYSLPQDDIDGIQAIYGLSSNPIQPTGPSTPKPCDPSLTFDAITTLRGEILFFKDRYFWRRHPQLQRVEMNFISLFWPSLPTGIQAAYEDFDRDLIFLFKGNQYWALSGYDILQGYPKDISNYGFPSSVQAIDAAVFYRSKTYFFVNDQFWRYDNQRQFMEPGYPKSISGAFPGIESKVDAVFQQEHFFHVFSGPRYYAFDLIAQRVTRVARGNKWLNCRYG

[3] = biological target: Matrix metalloproteinase-9 (Homo sapiens, UniProt P14780); assay: Binding affinity to MMP9
Matrix metalloproteinase-9, sequence (P14780 whole entry): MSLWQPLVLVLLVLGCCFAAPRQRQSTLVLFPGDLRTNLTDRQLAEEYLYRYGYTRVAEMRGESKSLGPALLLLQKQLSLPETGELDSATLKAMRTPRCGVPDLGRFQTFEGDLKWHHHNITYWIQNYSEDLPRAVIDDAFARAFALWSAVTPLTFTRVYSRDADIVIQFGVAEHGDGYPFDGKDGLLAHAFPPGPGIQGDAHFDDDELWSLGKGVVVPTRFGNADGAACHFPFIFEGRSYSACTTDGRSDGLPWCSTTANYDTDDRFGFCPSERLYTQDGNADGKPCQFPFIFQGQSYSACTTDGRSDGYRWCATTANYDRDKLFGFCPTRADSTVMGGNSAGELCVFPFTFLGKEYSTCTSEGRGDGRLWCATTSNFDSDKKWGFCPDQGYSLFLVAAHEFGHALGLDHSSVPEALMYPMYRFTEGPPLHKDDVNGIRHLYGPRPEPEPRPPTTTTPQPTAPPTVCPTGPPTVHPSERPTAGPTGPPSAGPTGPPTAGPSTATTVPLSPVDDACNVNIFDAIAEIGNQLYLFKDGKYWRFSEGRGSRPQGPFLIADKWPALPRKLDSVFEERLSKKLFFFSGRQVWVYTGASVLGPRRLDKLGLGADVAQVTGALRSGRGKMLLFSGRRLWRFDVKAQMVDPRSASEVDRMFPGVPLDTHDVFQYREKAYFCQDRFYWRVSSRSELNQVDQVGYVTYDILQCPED

[4] = biological target: 72 kDa type IV collagenase (Homo sapiens, UniProt P08253); assay: Binding affinity to MMP2
72 kDa type IV collagenase, sequence (P08253 whole entry): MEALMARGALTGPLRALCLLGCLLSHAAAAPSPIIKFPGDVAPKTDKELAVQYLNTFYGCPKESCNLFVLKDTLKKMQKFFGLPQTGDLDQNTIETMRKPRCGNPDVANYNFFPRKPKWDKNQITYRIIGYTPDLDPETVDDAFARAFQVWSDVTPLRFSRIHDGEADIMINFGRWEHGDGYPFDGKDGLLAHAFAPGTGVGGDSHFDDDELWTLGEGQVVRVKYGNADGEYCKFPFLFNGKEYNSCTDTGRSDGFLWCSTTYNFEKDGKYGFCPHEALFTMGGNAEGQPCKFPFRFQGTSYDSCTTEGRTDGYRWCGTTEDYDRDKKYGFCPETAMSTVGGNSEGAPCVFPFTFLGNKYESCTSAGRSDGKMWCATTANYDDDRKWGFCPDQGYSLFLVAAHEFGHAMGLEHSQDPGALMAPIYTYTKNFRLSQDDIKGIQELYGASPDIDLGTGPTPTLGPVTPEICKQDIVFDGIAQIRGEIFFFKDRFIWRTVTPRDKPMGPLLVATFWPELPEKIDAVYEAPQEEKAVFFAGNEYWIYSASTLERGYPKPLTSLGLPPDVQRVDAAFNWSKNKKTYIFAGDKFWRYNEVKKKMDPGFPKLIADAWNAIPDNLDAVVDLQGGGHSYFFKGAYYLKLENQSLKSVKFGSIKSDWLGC

[5] = biological target: Stromelysin-1 (Homo sapiens, UniProt P08254); assay: Binding affinity to MMP3
Stromelysin-1, sequence (P08254 whole entry): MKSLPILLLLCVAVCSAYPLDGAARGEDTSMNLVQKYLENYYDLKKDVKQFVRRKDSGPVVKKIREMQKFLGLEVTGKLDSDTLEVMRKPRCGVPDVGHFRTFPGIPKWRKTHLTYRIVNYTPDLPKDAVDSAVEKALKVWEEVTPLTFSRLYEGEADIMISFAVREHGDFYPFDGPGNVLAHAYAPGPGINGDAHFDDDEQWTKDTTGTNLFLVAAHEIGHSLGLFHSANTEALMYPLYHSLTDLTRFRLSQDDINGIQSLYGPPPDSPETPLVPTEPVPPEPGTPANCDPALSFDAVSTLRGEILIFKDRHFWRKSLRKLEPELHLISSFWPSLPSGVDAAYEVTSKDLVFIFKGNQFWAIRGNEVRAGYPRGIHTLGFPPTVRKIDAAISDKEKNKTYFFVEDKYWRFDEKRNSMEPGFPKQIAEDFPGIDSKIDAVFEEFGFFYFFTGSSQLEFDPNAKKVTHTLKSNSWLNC

[6] = biological target: T2, Interstitial collagenase (Homo sapiens) (UniProt P03956); assay: Inhibition of MMP1 at 2 uM
T2 sequence (whole entry): T1 sequence (P03956 whole entry)

[7] = biological target: T3, Matrilysin (Homo sapiens) (UniProt P09237); assay: Inhibition of MMP7 at 2 uM
T3 sequence (whole entry): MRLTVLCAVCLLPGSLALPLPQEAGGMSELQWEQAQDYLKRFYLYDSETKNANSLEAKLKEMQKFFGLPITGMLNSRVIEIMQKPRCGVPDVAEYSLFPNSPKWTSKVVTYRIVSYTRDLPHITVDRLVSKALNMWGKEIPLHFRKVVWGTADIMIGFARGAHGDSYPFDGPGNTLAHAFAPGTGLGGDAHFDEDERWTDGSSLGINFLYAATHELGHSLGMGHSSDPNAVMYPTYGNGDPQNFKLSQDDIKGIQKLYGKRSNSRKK

[8] = biological target: T4, Stromelysin-3 (Homo sapiens, UniProt P24347); assay: Binding affinity to MMP11
T4 sequence (P24347 whole entry): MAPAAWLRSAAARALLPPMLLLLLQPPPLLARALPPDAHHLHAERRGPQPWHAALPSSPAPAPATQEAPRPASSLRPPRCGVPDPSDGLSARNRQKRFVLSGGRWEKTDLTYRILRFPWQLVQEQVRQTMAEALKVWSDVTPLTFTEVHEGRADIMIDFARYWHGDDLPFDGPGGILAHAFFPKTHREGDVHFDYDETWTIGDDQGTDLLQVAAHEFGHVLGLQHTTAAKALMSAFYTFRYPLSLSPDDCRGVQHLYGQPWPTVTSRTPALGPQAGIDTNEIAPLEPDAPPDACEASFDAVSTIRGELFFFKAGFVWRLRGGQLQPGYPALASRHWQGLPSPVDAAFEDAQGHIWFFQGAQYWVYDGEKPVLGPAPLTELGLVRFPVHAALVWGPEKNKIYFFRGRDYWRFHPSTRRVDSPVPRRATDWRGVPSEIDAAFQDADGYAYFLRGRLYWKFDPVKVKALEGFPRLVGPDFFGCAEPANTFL

[9] = biological target: T5, Matrilysin (Homo sapiens, UniProt P09237); assay: Binding affinity to MMP7
T5 sequence (P09237 whole entry): T3 sequence (whole entry)

Row | IC50 [1] | IC50 [2] | IC50 [9] | IC50 [4] | IC50 [5] | Compound | further results
1 | > 10000 nM | 10 nM |  |  |  | O=C(O)C1Cc2ccccc2CN1S(=O)(=O)CCc1ccc(-c2ccc(Cl)cc2)cc1 (stereo not given) | 
2 |  |  |  |  |  | CNC(=O)C1CCCCNC(=O)CCC(C(=O)O)NC(CCc2ccccc2)C(=O)N1 (stereo not given) | Ki [3]: 6600 nM; Ki [4]: 8100 nM; Ki [2]: 17 nM; Ki [5]: 2900 nM
3 |  | 2.5 nM |  |  |  | NC(=O)C(Cc1c[nH]c2ccccc12)NC(=O)C(CCCc1ccccc1)CP(=O)(O)C(Cc1ccccc1)NC(=O)OCc1ccccc1 (stereo not given) | inhibition [6]: 23%; inhibition [7]: 8%; Ki [8]: 5 nM
4 | > 1000 nM |  | > 1000 nM | 2.6 nM | > 1000 nM | O=C(Nc1ccc(S(=O)(=O)C[C@@H](Cc2c[nH]c3ccccc23)C(=O)O)cc1)c1ccc(Br)cc1 | IC50 [3]: 2.7 nM
5 | 30 nM | 20 nM | 200 nM | 20 nM | 500 nM | CC(C)CC(C(=O)N[C@H]1CCCCCCCCCCNC1=O)[C@H](O)C(=O)NO (stereo not given in full) | 
